{
  "source": "patent US20060234910A1",
  "about": "“Methods for the treatment of insulin resistance and disease states characterized by insulin resistance” (priority 2005, published 2006)",
  "key": {"MINOR gene expression": {"system": "MINOR gene expression", "experiment": "Quantitative real-time PCR of MINOR gene expression in 3T3-L1 adipocytes", "format": "cell-based", "details": "for insulin-stimulated MINOR gene expression: 1 hour", "description": "(§1) FIGS. 3A-3C show the effect of insulin stimulation on MINOR and TR3 gene expression in 3T3-L1 adipocytes. FIGS. 3A and 3B show insulin induces the expression of MINOR and TR3 gene expression in 3T3-L1 adipocytes. Fully differentiated 3T3-L1 adipocytes were treated with 100 nM of insulin for up to 8 hours (treated) or 0 nM insulin (0 hour control). The control and treated adipocytes were lysed and the mRNAs were extracted for cDNA synthesis. Quantitative real-time PCR was used to measure expression of MINOR (FIG. 3A) and TR3 (FIG. 3B) genes. Results represent the mean±SE from three separate experiments. […] Fully differentiated 3T3-L1 adipocytes were treated with 100 nM of insulin alone (control) or plus LY294002 (PI 3-kinase inhibitor), SB203580 (p38 MAP kinase inhibitor), Ro318220 (protein kinase C inhibitor) for one hour. The control and treated adipocytes were lysed and the mRNAs were extracted for cDNAs synthesis. A quantitative real-time PCR was performed for detecting the expression levels of MINOR and TR3 genes. Results represent the mean±SE from three separate experiments.\n(§2) Fully differentiated 3T3-L1 adipocytes were treated with 10 uM of the indicated thiazolidinedione (troglitazone or pioglizatone) from 0 to 48 hours. Control cells received vehicle alone. The control and treated adipocytes were lysed and the mRNAs were extracted for cDNA synthesis. Quantitative real-time PCR was used to measure expression levels of MINOR (FIGS. 4A and 4B) and TR3 (FIGS. 4C and 4D) genes. Results represent the mean±SE from three separate experiments.\n(§3) Fully differentiated 3T3-L1 adipocytes were treated with 100 nM of insulin for various times (0 to 8 hours; the 0 hour time point served as the control and received no added insulin). The control and treated adipocytes were lysed and the mRNAs were extracted for cDNAs synthesis. A quantitative real-time PCR was performed for detecting the expression levels of MINOR and TR3 genes. […] Insulin also stimulated TR3 gene expression adipocytes, but with a different temporal response with TR3 expression levels returning to baseline by hour 2 after treatment (FIG. 3B).\n(§4) The stimulatory effect of insulin on MINOR and TR3 gene expression was dependent on signal transduction via the PI-3-kinase pathway, the p38 MAP-K pathway and the protein kinase C (PKC) pathway. […] A quantitative real-time PCR was performed for detecting the expression levels of MINOR and TR3 genes. […]\n(§5) Fully differentiated 3T3-L1 adipocytes were treated with 10 uM of the indicated thiazolidinedione (troglitazone or pioglizatone) from 0 to 48 hours. […] Quantitative real-time PCR was used to measure expression levels of MINOR (FIGS. 4A and 4B) and TR3 (FIGS. 4C and 4D) genes. […]"}, "TR3 gene expression": {"system": "TR3 gene expression", "experiment": "Quantitative real-time PCR of TR3 gene expression in 3T3-L1 adipocytes", "format": "cell-based", "details": "for insulin-stimulated TR3 gene expression: 1 hour", "description": "as §1, §2, §3, §4, §5"}, "[1]": {"system": "TR3 gene expression in skeletal muscle", "experiment": "cDNA microarray of skeletal muscle biopsies, basal vs hyperinsulinemia (TR3)", "format": "in vivo, human", "details": "insulin stimulation, three hours of hyperinsulinemia vs basal", "source_text": "(§6) The primary target tissues for insulin action are skeletal muscle, adipose tissue, and the liver tissue. Skeletal muscle is the predominant target tissue for insulin-mediated glucose uptake (responsible for approximately 95% of glucose uptake), and is a critical locus of insulin resistance. Defects in glucose uptake in skeletal muscle is a predominate contributor to the clinical manifestations of insulin resistance. The molecular basis for insulin resistance is not well understood, but appears to involve defects in insulin signal transduction and abnormal cellular trafficking of glucose transporter proteins (5). To better understand the molecular defects responsible for human insulin resistance, skeletal muscle biopsies were obtained from volunteers in three metabolically-defined subgroups: A) insulin sensitive: (B) insulin resistant; and (C) type 2 diabetic. Biopsies from each subgroup were obtained under both basal conditions and after three hours of hyperinsulinemia. Differential gene expression in these muscle biopsies was assessed using cDNA microarray technology utilizing the Affymetrix Hu95A gene expression chips (carried out as per manufacturer's instructions). The effect of insulin on gene expression in human muscle has not been extensively studied, and most prior studies focused on single genes or small numbers of genes with a limited focus (6-8). […]"}, "[2]": {"system": "GLUT4 glucose transporters at plasma membrane", "experiment": "Plasma membrane lawn assay of GLUT4 in adipocytes", "format": "cell-based", "details": "control (LacZ transfected) adipocytes, 100 nM insulin, 30 min vs basal", "description": "FIGS. 6A-6D show the effect of MINOR gene expression on insulin-mediated recruitment of GLUT4 glucose transporters to plasma membrane. MINOR gene transduced 3T3-L1 fibroblasts and control LacZ transduced fibroblasts were grown on glass cover slips and differentiated into adipocytes. Adipocytes were then stimulated for 30 min with (insulin-stimulated) or without (basal) 100 nM of insulin. The adipocytes were then washed, and disrupted by sonication leaving and plasma membrane sheets attached to cover slips (plasma membrane lawn assay) (26). Plasma membrane associated GLUT4 was detected using a polyclonal anti-GLUT4 antibody and a FITC-conjugated secondary antibody. (A) basal LacZ expressing adipocytes; (B) insulin-stimulated LacZ expressing adipocytes; (C) basal Minor expressing adipocytes; (D) insulin-stimulated Minor expressing adipocytes.\nThese experiments use the “plasma membrane lawn” technique (26) to quantify the relative amounts of GLUT4 glucose transporter proteins in the cell surface plasma membrane. MINOR gene transduced 3T3-L1 fibroblasts and control LacZ transduced fibroblasts were grown on glass cover slips and differentiated into adipocytes. […] Plasma membrane associated GLUT4 was detected using a polyclonal anti-GLUT4 antibody and a FITC-conjugated secondary antibody."}, "Nurr1 gene expression": {"system": "Nurr1 gene expression", "experiment": "Nurr1 gene expression in 3T3-L1 adipocytes", "format": "cell-based", "details": "fully differentiated 3T3-L1 adipocytes, 100 nM insulin; data not shown"}, "[3]": {"system": "MINOR gene expression in skeletal muscle", "experiment": "cDNA microarray of skeletal muscle biopsies, basal vs hyperinsulinemia (MINOR)", "format": "in vivo, human", "details": "insulin stimulation, three hours of hyperinsulinemia vs basal", "source_text": "as §6"}, "[4]": {"details": "3T3-L1 adipocytes, 100 nM insulin plus inhibitor 50 nM"}, "[5]": {"details": "3T3-L1 adipocytes, 100 nM insulin plus inhibitor 10 nM"}, "[6]": {"details": "3T3-L1 adipocytes, 100 nM insulin"}, "[7]": {"details": "fully differentiated 3T3-L1 adipocytes, 100 nM insulin, 0 to 8 hours"}},
  "data": [
    {"compound": "Cn1cc(C2=C(c3cn(CCCSC(=N)N)c4ccccc34)C(=O)NC2=O)c2ccccc21", "note": "[Ro318220, reference compound]", "values": [
      {"measurement": "insulin-stimulated MINOR gene expression", "setting": "MINOR gene expression; [4]", "value": "decreased the ability of insulin to stimulate"},
      {"measurement": "insulin-stimulated TR3 gene expression", "setting": "TR3 gene expression; [4]", "value": "decreased the ability of insulin to stimulate"}
    ]},
    {"compound": "C[S+]([O-])c1ccc(-c2nc(-c3ccncc3)c(-c3ccc(F)cc3)[nH]2)cc1", "note": "(stereo not drawn) [SB203580, reference compound]", "values": [
      {"measurement": "insulin-stimulated MINOR gene expression", "setting": "MINOR gene expression; [5]", "value": "decreased the ability of insulin to stimulate"},
      {"measurement": "insulin-stimulated TR3 gene expression", "setting": "TR3 gene expression; [5]", "value": "decreased the ability of insulin to stimulate"}
    ]},
    {"compound": "insulin", "values": [
      {"measurement": "period over which the increase in MINOR gene expression is sustained", "setting": "MINOR gene expression; [6]", "value": 4, "unit": "h"},
      {"measurement": "MINOR gene expression", "setting": "MINOR gene expression; [7]", "value": "stimulated"},
      {"measurement": "TR3 gene expression in human skeletal muscles (microarray)", "setting": "[1]", "value": "strongly induced"},
      {"measurement": "plasma membrane associated GLUT4", "setting": "[2]", "value": "increased GLUT4 staining in the plasma membrane"},
      {"measurement": "Nurr1 gene expression", "setting": "Nurr1 gene expression", "value": "not stimulated"},
      {"measurement": "MINOR gene expression in human skeletal muscles (microarray)", "setting": "[3]", "value": "strongly induced"},
      {"measurement": "time at which TR3 expression levels return to baseline after treatment", "setting": "TR3 gene expression; [6]", "value": "≤ 2", "unit": "h"},
      {"measurement": "TR3 gene expression", "setting": "TR3 gene expression; [7]", "value": "stimulated"}
    ]}
  ]
}
